Experimental data reported in US5004756A, “Anti-cancer activity potentiator” (priority 1988, dated 1991).
≈ marks a conversion by molar mass, not a printed value. Blank lines part the entries; values can stand above or below the compound they belong to.

What was measured:
V79/ADM [1] = assay: Anti-cancer activity potentiating action, colony formation, V79/ADM resistant cells (A-III); format: cell-based, Chinese hamster; details: V79/ADM; for IC50: Cricetulus griseus
Protocol: (§1) The anti-cancer activity potentiating action of the malate of formula (I) was examined using Chinese hamster cells (sensitive cell line V79/S and ADM-resistant cell line V79/ADM), human hepatoma cells (sensitive cell line PLC/S and colchicin-resistant cell line PLC/Col) and mouse leukemia cells (sensitive cell line L5178Y/S) and aclarubicin-resistant cell line L5178Y/ACR).
(§2) Of these tumor cells, the sensitive cells (400 cells) and the resistant cells (600 cells) were each incubated in 10 ml of Eagle's MEM medium containing 10% bovine serum for 24 hours, and then each of the test drugs indicated in Table 6 was added. Thereafter, the incubation was carried out for 9 days. The concentration (IC50 : micrograms/ml) of the test drug required to inhibit 50% of the colony formation (proliferation) of the tumor cells was calculated.
(§3) (A) Chinese hamster V79 cells
(§4) As anti-cancer agents, there were used adriamycin (ADM), aclarubicin (ACR), actinomycin D (ACD), 5-fluorouracil (5-FU), cytarabin (Ara-C), cisplatin (CDDP), methotrexate (MTX), mitomycin C (MMC), nimustine (ACNU), mitoxantrone, etoposide ([…]), vincristine (VCR), bleomycin (BLM) and peplomycin (PEP). For the sensitive cells, the anti-cancer agents were used in combination with 10 micrograms/ml of the malate of formula (I), and for the resistant cells, the anti-cancer agents were used in combination with the malate of formula (I) 3 micrograms/ml, 5 micrograms/ml, and 10 micrograms/ ml.

[2] = tested on: clinically isolated human cancer cells (lung adenocarcinoma, lung squamous cell carcinoma, osteosarcoma, ovarian carcinoma); assay: Anti-tumor activity on clinically isolated human cancer cells, morphological changes (A-I Part 2); format: cell-based; details: 0.2 μg/ml
[3] = tested on: human tumor cells (muscle fibrosarcoma HT-1080); assay: Anti-cancer activity potentiating action in nude mice with HT-1080 (A-VI); format: in vivo, human tumor in ICR nude mice; details: MMC 3 mg/kg, days 5, 10, 15, 20; day 36
Protocol: ICR nude mice, 6 per group, were used, and the experiment was conducted substantially in accordance with the procedure described in A-V.
As tumor cells, human tumor cells (muscle fibrosarcoma HT-1080) were used, and 5 days after the transplantation, drug administration was started.
The administration was further performed every 5 days from the day of starting the administration, and the total number of administrations was therefore 4.
Mitomycin C (MMC) was tested by the same way as above.
Thirty-six days after the transplantation of the tumor, a tumor mass was extracted and its weight was measured. From the difference of the weight of the tumor from the non-treated control group, the tumor growth inhibition ratio (%) was calculated.

V79/S [4] = assay: Anti-cancer activity potentiating action, colony formation, V79/S parent cells (A-III); format: cell-based, Chinese hamster; details: for IC50: Cricetulus griseus
Protocol: as §1, §2, §3, §4

Meth-A = assay: Tumor proliferation inhibiting activity, Meth-A (A-IV); format: in vivo, BALB/c rats; details: MMC 1.0 mg/kg/day, days 1-5
Protocol: Female BALB/c rats (7 weeks old), 8 per group, were used. Tumor cells (Meth-A) induced by methyl cholanthrene were transplanted intraperitoneally to the rats, and then the malate of formula (I) was administered intraperitoneally to the rats. The proliferation inhibiting activity of the malate was examined by comparing the weight of the tumor cells with that of the tumor cells in the non-treated control group.
The dose of the malate of formula (I) was 1.25, 2.5, 5.0, and 10.0 mg/kg/day. Mitomycin C (MMC) was administered as another anti-cancer agent. The weight of the tumor cells was measured, and the proliferation inhibiting activity was determined.
The weight (g) of the tumor with respect to that of the tumor in the control group (T/C, %) after 16 days from the transplantation of the tumor cells, and the number of surviving rats after 16 days are shown in Table 8.

PLC/S [5] = assay: Anti-cancer activity potentiating action, colony formation, PLC/S parent cells (A-III); format: cell-based, human; details: PLC/S; with compound (I) 5 μg/ml
Protocol: as §1, §2
(§5) As anti-cancer agents, adriamycin (ADM) and peplomycin (PEP) were used in combination with the malate of formula (I) (5 micrograms/ml).

PLC/S [6] = assay: Colony formation (proliferation) inhibition, sensitive human hepatoma cells (A-I Part 1); format: cell-based; details: PLC/S; 9 days; Table 1
Protocol: (§6) Sensitive cell line V79/S and ADM-resistant cell line V79/ADM of the Chinese hamster were used, and sensitive cell line PLC/S and cholchicin-resistant cell line PLC/Col, as human hepatoma cells.
(§7) The sensitive cell lines (400 cells) or the resistant cell lines (600 cells) were each incubated for 24 hours in 10 ml of Eagle's MEM medium containing 10% bovine serum. Each of the drugs indicated in Table 1 below was dissolved in ethanol, and 50 microliters of the resulting solution was added to the medium. The incubation was further carried out for 9 days. The concentration of the drug which inhibits 50% of the colony formation (proliferation) of the tumor cells was calculated.
(§8) V79/S and V79/ADM were tested by using all of the drugs described above, but PLC/S and PLC/Col were tested by using only the malate of formula (I), adriamycin and peplomycin.
(§9) The concentrations (micrograms/ml) required to inhibit 50% of the proliferation of the tumor cells, expressed by IC50, are shown in Table 1.

V79/S [7] = assay: Colony formation (proliferation) inhibition, sensitive Chinese hamster cells (A-I Part 1); format: cell-based; details: V79/S; 9 days; Table 1
Protocol: as §6, §7, §8, §9

PLC/Col [8] = assay: Colony formation (proliferation) inhibition, colchicin-resistant human hepatoma cells (A-I Part 1); format: cell-based; details: PLC/Col; 9 days; Table 1
Protocol: as §6, §7, §8, §9

PLC/Col [9] = assay: Anti-cancer activity potentiating action, colony formation, PLC/Col resistant cells (A-III); format: cell-based, human; details: PLC/Col; with compound (I) 5 μg/ml
Protocol: as §1, §2, §5

V79/ADM [10] = assay: Colony formation (proliferation) inhibition, ADM-resistant Chinese hamster cells (A-I Part 1); format: cell-based; details: V79/ADM; 9 days; Table 1
Protocol: as §6, §7, §8, §9

[11] = V79/S, with compound (I) 10 μg/ml

Compound: CO[C@@]12[C@H](COC(N)=O)C3=C(C(=O)C(C)=C(N)C3=O)N1C[C@@H]1N[C@@H]12 [MMC, mitomycin C]
- IC50 (V79/ADM [1]; alone, Table 6, read-out: IC50, anti-cancer agent alone): 0.057 µg/mL
- IC50 (V79/ADM [1]; with compound (I) 5 μg/ml, read-out: IC50 in combination with compound (I)): 0.011 µg/mL
- Potentiation activity (V79/ADM [1]; with compound (I) 5 μg/ml): 5.20 times
- Efficacy ratio (rated significant by Fisher's test) [2]: 0/8
- Tumor growth inhibition ratio [3]: 47.0%
- Tumor weight [3]: 1.92 ± 0.27
- IC50 (V79/S [4]; read-out: IC50 in combination with compound (I)): 0.01 µg/mL
- IC50 (V79/S [4]; V79/S, alone, Table 6, read-out: IC50, anti-cancer agent alone): 0.02 µg/mL
- Potentiation activity (V79/S [4]; [11]): 2.0 times
- Number of surviving animals (Meth-A; 16 days later): 8/8
- T/C (tumor weight) (Meth-A; day 16): 21%
- Tumor weight mean ± S.D. (Meth-A; day 16): 0.347 ± 0.185 g

- IC50, anti-cancer agent alone (V79/ADM [1]; alone, Table 6): 0.48 µg/mL
- IC50 in combination with compound (I) (V79/ADM [1]; with compound (I) 3 μg/ml): 0.0157 µg/mL
- IC50, anti-cancer agent alone (V79/S [4]; V79/S, alone, Table 6): 1.95 µg/mL
- IC50 in combination with compound (I) (V79/S [4]; [11]): 0.0165 µg/mL
- IC50 (PLC/S [6]): 0.24 µg/mL (≈ 0.163 µM)
- IC50 (PLC/Col [8]): 0.19 µg/mL (≈ 0.129 µM)
Compound: Cc1c(N)nc([C@H](CC(N)=O)NC[C@H](N)C(N)=O)nc1C(=O)N[C@H](C(=O)N[C@H](C)[C@@H](O)[C@H](C)C(=O)N[C@H](C(=O)NCCc1nc(-c2nc(C(=O)NCCCN[C@@H](C)c3ccccc3)cs2)cs1)[C@@H](C)O)[C@@H](O[C@@H]1O[C@@H](CO)[C@@H](O)[C@H](O)[C@@H]1O[C@H]1O[C@H](CO)[C@@H](O)[C@H](OC(N)=O)[C@@H]1O)c1c[nH]cn1 [PEP, peplomycin]
- Potentiation activity (V79/ADM [1]; with compound (I) 3 μg/ml): 30.5 times
- Potentiation activity (PLC/S [5]): 3.0 times
- Potentiation activity (V79/S [4]; [11]): 118 times
- IC50 (V79/S [7]): 1.95 µg/mL (≈ 1.32 µM)
- Potentiation activity (PLC/Col [9]): 6.3 times
- IC50 (V79/ADM [10]): 0.48 µg/mL (≈ 0.326 µM)
